Test results from patent publication US20240148780A1, “COMPOSITION AND USE OF AN OPHTHALMIC SOLUTION BASED ON HYALURONIC ACID AND ARABINOGALACTAN” (MD ITALY SRL, priority 2019, published 2024).

Legend:
[1] = system: isolated hepatocytes and microsomal fractions from rat liver; settings: compared with an equivalent amount of directly-added free alpha-tocopherol; cited from earlier work
[2] = molecular target: T1, xanthine oxidase (Homo sapiens, UniProt P47989); assay: Xanthine oxidase (XOD) reaction inhibition: formation of uric acid; assay type: biochemical
Description: The effect of arabinogalactan, hyaluronic acid and the association thereof was investigated by monitoring the formation of uric acid over time (0, 1, 5, 10, 15, 30 min). Uric acid concentration was determined at 291 nm using a DR6000 UV spectrophotometer (Hach, Lange). The absorbance value is related to the concentration by means of the Lambert-Beer law:
where A is the absorbance of uric acid at 291 nm, ε is the molar absorption coefficient, b is the optical path (thickness of the cuvette in which the solution is contained) and C is the uric acid concentration.
The blank/control consists of: 50 μM xanthine, 10 mg L^−1 of xanthine oxidase (XO) (0.00016 μUI of enzyme) in borate buffer solution (see table 3) 7.2≤pH≤7.8). The effect of the components of the eye drops was investigated by adding the individual components to the blank solution: respectively • (i) 0.4% (w/w) of arabinogalactan (AG) • (ii) 0.15% (w/w) of hyaluronic acid (HA) • (iii) association of 0.4% (w/w) of AG+0.15% (w/w) of HA (mix AG+HA). • (iii) Eye drops corresponding to the formulation of Tab.3.
All the tests were conducted at least in triplicate.
The uric acid formation reductions were calculated as: […]
where C30-(i) is the final concentration (30 min) of uric acid in the i-th test and C30-control is the uric acid concentration at 30 min in the blank (control).
Furthermore, the inhibition evaluation reported above was also carried out in borate buffer for arabinogalactan, for hyaluronic acid and for the association thereof, and finally for the eye drops formulation of the present invention, also comprising panthenol, vitamin E-TGPS and trehalose.

[3] = molecular target: T1, xanthine oxidase; assay: Superoxide anion production by xanthine oxidase, detected by ferrocytochrome C reduction; assay type: biochemical; settings: xanthine oxidase reaction
Text: Any inhibition is particularly important because the superoxide anion production is at the origin, at least in part, of the inflammatory phenomena of the ocular surface. The superoxide anion produced by xanthine oxidase in the oxidation reaction of xanthine was detected by the reduction of […] to […] by the same superoxide anion (O2^−·) (Fridovich). The reaction is reported here for clarity:
Fe^3+Cit.C+Superoxide Anion-----→Fe^2+Cit.C
The effect of arabinogalactan, hyaluronic acid, and the association thereof on superoxide anion production over time (0, 1, 5, 10, 15, 30 min) was investigated. The production of superoxide anion was determined by the reduction of ferrocytochrome C (3+) to ferrocytochrome C (2+), monitoring absorption at 551 nm using a DR6000 UV spectrophotometer (Hach, Lange). The tests for the determination of superoxide anion production were carried out still using the xanthine oxidase reaction used previously.
Produced by the superoxide anion, the ferrocytochrome C was calculated considering a molar absorption equal to 2.1×10^4 M^−1·cm^−1 (Ref. 16-17). The superoxide inhibition evaluation reported above was performed for arabinogalactan, hyaluronic acid, and the association thereof. Furthermore, the eye drops formulation of the present invention was also evaluated, also comprising panthenol, vitamin E-TGPS and trehalose.

[4] = Viscosity as a function of shear rate, plate viscometer; assay type: physicochemical
Description: Given the results obtained, the characterization was further extended to determine the viscosity as a function of the shear rate, always using a Plate Viscometer, in particular the following solutions were measured. • Sample 1: Hyaluronic acid • Sample 2: Hyaluronic acid+Arabinogalactan • Sample 3: Eye drops A • Sample 4: Arabinogalactan
The description of the graph can be further exemplified by the following table which reports the viscosity values (mPa·s$) at 10[1/s] at a fixed point corresponding to A.

[5] = Rheology, plate viscometer in oscillation mode (G″, G′); assay type: physicochemical; settings: HA 0.15% w/w, AG 0.4% w/w
Description: In addition to the evaluation of the effect of arabinogalactan, hyaluronic acid and the association thereof on xanthine oxidase activity and in order to characterize the possible interaction thereof, to justify the inhibitory effect thereof, rheology measurements were carried out with the hypothesis that the two macrostructures, arabinogalactan on the one hand and hyaluronic acid on the other, could modify the rheological trend of the formulation of the present invention.
With reference to FIG. 3, the characterization of the following solutions was carried out using an AM Instruments Plate Viscometer, in Oscillation Mode. The following solutions were measured: • Sample 1: Hyaluronic acid solution at 0.15% w/w • Sample 2: Arabinogalactan solution 0.4% +Hyaluronic acid 0.15% w/v • Sample 3: Arabinogalactan solution 0.4% w/w.
1: Hyaluronic acid 0.15% w/w • Solution no. 2: Arabinogalactan 0.4%+hyaluronic acid 0.15% w/w • Solution no. 3: Arabinogalactan 0.4% w/w • Interpretation of the Results: […]

T1 sequence (P47989 whole entry, species assumed): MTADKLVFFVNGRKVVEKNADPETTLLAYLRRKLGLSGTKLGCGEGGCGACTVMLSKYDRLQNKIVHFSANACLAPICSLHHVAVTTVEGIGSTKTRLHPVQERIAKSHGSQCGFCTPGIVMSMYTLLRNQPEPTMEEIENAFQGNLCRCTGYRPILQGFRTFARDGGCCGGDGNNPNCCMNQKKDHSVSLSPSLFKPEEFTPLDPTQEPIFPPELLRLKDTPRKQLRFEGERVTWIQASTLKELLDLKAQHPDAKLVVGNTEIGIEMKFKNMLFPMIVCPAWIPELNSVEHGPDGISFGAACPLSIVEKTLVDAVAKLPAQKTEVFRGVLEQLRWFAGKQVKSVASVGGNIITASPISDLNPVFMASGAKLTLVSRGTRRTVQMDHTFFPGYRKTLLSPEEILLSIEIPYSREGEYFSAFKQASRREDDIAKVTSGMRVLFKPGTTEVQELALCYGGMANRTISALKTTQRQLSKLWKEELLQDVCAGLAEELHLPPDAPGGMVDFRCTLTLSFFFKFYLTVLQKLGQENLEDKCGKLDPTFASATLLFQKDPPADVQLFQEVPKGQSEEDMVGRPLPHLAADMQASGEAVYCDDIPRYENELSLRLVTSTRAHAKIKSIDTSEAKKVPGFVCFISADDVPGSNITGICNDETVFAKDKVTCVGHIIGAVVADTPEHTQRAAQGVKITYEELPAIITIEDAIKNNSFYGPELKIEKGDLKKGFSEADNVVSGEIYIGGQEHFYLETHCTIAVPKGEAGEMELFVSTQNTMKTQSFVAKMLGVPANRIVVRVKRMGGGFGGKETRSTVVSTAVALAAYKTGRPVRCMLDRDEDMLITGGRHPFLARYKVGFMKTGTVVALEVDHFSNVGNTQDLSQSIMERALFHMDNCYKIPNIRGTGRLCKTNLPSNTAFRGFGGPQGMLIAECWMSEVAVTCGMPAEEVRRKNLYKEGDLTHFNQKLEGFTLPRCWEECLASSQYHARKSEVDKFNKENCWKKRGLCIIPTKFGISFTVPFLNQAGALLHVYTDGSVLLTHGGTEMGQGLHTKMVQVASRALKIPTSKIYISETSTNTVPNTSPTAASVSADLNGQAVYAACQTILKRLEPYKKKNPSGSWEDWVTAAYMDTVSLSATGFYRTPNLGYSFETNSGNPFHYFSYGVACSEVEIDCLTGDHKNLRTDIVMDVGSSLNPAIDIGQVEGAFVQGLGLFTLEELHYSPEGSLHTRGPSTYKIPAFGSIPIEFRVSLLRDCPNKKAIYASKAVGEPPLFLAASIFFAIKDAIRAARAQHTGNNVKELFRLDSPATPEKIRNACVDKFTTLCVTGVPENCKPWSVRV

| Compound | Antioxidant protection [1] | Uric acid μM produced in 30 minutes ([2]; 50 μM xanthine, 10 mg L−1 xanthine oxidase, borate buffer, AG 0.4% w/w, HA 0.15% w/w, 30 min) [µM] | Inhibition % of uric acid production ([2]; 50 μM xanthine, 10 mg L−1 xanthine oxidase, borate buffer, AG 0.4% w/w, HA 0.15% w/w, 30 min vs blank) [%] | Uric acid μM produced per minute ([2]; per minute, same reaction, linear kinetics assumed) [µM] | Fe+2 Cit.C μM produced per minute ([3]; per minute) [µM] | Fe+2 Cit.C μM produced in 30 minutes ([3]; 551 nm, 30 min) [µM] | Inhibition % of Fe+2 Cit.C production (superoxide anion) ([3]; 551 nm, 30 min vs control) [%] | Viscosity trend as a function of shear rate ([4]; FIG. 4) | Viscosity ([4]; at 10 [1/s], fixed point) [mPa·s] | Trend of G″ (Loss Modulus Viscosity) [5] |
| --- | --- | --- | --- | --- | --- | --- | --- | --- | --- | --- |
| alpha-tocopherol polyethylene glycol 1000 succinate [TPGS] | more effective antioxidant protection than an equivalent amount of directly-added free alpha-tocopherol | – | – | – | – | – | – | – | – | – |
| Cc1c(C)c2c(c(C)c1OC(=O)CCC(=O)O)CC[C@@](C)(CCC[C@H](C)CCC[C@H](C)CCCC(C)C)O2 [TS, alpha-tocopherol succinate, reference compound] | more effective antioxidant protection than an equivalent amount of directly-added free alpha-tocopherol | – | – | – | – | – | – | – | – | – |
| Hyaluronic acid | – | 15.3 | 0 | 0.51 | 0.42 | 12.6 | 17.2 | linear trend (Newtonian) higher viscosity | 1.50 | always with a value higher than the other measured solutions |
